The source of these data is patent publication US20250034116A1, “1,4-DIHETEROCYCLIC SUBSTITUTED AROMATIC RING OR AROMATIC HETEROCYCLIC COMPOUND AND USE THEREOF” (BeBetter Med Inc., priority 2022, published 2025).

SMILES strings stand for the structures.

The subject of data set [1] is 20-HETE. Description: Experiment 6: level of 20-HETE in DIO rat model. Conditions: DIO rats, single oral dose 25 mg/kg, 8 hours; most pronounced in the kidneys. The data set is classed as in vivo, Male SD rats. The procedure:
Experiment 6 was to investigate the effect of compound 2 on regulating the level of 20-HETE in a diet-induced obesity (DIO) rat model. Male SD rats were purchased from Guangdong Vital River Laboratory Animal Technology Co., Ltd. and housed in a barrier system animal facility. After 14 weeks of high-fat diet (HFD) induction, compound 2 was administered at a dose of 25 mg/kg once, and samples were collected after 8 hours to detect the level of 20-HETE. A solvent control group was also set up simultaneously, with 3 animals per group.

For data set [2], the system named is diet-induced obesity (DIO) mouse model. As to the kind of experiment: Experiment 4: weight loss of compound 2 compared with semaglutide in DIO mouse model. The data set is classed as in vivo, Male C57BL/6J mice. The source says:
Experiment 4 was to compare the weight loss effects of compound 2 with that of semaglutide in a diet-induced obesity (DIO) mouse model. Male C57BL/6J mice were purchased from Vital River Laboratories (Shanghai) Co., Ltd. and housed in a barrier system animal facility. Animals were randomly divided into 4 groups: normal control group, DIO model control group, compound 2 treatment group, and semaglutide treatment group, with 6 animals per group. The model control group and treatment groups were first fed with high-fat diet (HFD) for 18 weeks, after which the treatment groups were administered with compound 2 or semaglutide, respectively. Compound 2 was administered orally at a dose of 30 mg/kg once daily for 14 consecutive weeks, while semaglutide was administered subcutaneously at a dose of 30 nmol/kg once daily. After 7 weeks of semaglutide treatment, the semaglutide treatment group was switched to compound 2 treatment for another 7 weeks.

For data set [3], the system named is 20-HETE. As to the kind of experiment: Experiment 5: level of 20-HETE in DIO mouse model. The data set is classed as in vivo, Male C57BL/6J mice. Conditions: DIO mice, single oral dose 50 mg/kg, 8 hours; most pronounced in the liver and kidneys. The procedure: Experiment 5 was to investigate the effect of compound 2 on regulating the level of 20-HETE in a diet-induced obesity (DIO) mouse model. Male C57BL/6J mice were purchased from Guangdong Vital River Laboratory Animal Technology Co., Ltd. and housed in a barrier system animal facility. After 24 weeks of high-fat diet (HFD) induction, compound 2 was administered at a dose of 50 mg/kg once, and samples were collected after 8 hours to detect the level of 20-HETE. A solvent control group was also set up simultaneously, with 3 animals per group.

Data set [4] deals with diet-induced obesity (DIO) mouse model. Description: Experiment 3: compound 2, weight loss and blood glucose lowering in DIO mouse model. The data set is classed as in vivo, Male C57BL/6J mice. The source says:
Experiment 3 was to study the effects of compound 2 on weight loss and blood glucose lowering in a diet-induced obesity (DIO) mouse model. Male C57BL/6J mice were purchased from Zhuhai BST Biotechnology Co., Ltd. and housed in a barrier system animal facility. Animals were randomly divided into 3 groups: normal control group, DIO model control group, and DIO model compound 2 treatment group, with 6-8 animals per group. The model control group and treatment group were first fed with high-fat diet (HFD) for 9 weeks (day 63), and then the treatment group was orally administered with compound 2 at a dose of 30 mg/kg once daily for 8 consecutive weeks, while continuing to receive HFD. Animal weights were measured weekly, and on the last day of treatment, they were fasted overnight but allowed access to water before an oral glucose tolerance test (OGTT).

Data set [5] can be described thus: Pharmacokinetic (PK) experiment, oral administration in rats. Conditions: 20 mg/kg. It is filed as in vivo, Male SD rats. Summed up:
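Fasted male SD rats (180-250 g) received 20 mg/kg orally in 30% sulfobutylether-β-cyclodextrin. Tail-vein blood sampled 15 min to 24 h post-dose into K2-EDTA; plasma protein-precipitated with acetonitrile containing internal standard and analysed by LC-MS/MS.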

The target in data set [6] is recombinant CYP4A11 (rCYP4A11) (Homo sapiens (Human), UniProt Q02928). As to the kind of experiment: Inhibition of 20-HETE production by recombinant CYP4A11. The data set is classed as biochemical. Summed up: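 Liver microsomes (human or mouse) or recombinant CYP4F2 or CYP4A11 in potassium phosphate buffer mixed with compound, then with 400 μM substrate solution (stock). After 10 min preincubation at 37 °C, reaction started with 6 mM NADPH solution (stock) and run 25 min at 37 °C. 20-HETE formation quantified by LC-MS/MS; IC50 from a four-parameter Hill fit, with percent inhibition also reported at 1000, 500 or 100 nM.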

In data set [7] the test system is CYP enzymes in rat liver microsomes (RLM). Description: Inhibition of 20-HETE production in rat liver microsomes (RLM). It is filed as biochemical. Summed up: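 Test compounds were dissolved in DMSO, diluted in acetonitrile/DMSO (3:1), and 2 μl was mixed with 100 μl potassium phosphate buffer containing rat liver microsomes in a 96-well plate. Duplicate 30 μl aliquots received 15 μl of 400 μM substrate, were preheated at 37° C. for 10 minutes, then started with 15 μl of 6 mM NADPH for 25 minutes. LC-MS/MS measured 20-HETE formation.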

Setting [8] is: 30 mg/kg orally once daily for 8 weeks, DIO mice.

Chain of recombinant CYP4A11 (rCYP4A11) (Q02928 5-519): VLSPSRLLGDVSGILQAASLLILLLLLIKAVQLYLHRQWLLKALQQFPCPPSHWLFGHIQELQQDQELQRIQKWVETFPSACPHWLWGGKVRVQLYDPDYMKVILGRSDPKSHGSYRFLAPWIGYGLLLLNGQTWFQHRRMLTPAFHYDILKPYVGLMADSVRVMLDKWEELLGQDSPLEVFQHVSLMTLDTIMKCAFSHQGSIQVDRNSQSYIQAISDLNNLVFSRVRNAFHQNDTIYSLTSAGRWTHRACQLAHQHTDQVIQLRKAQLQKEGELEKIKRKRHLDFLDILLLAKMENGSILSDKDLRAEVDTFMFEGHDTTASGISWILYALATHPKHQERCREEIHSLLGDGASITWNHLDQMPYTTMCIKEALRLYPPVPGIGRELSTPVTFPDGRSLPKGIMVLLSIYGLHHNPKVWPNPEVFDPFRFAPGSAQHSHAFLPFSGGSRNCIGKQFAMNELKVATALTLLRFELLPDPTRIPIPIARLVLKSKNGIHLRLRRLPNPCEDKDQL

As for `O=C1CCCN1CC1CCN(c2ccc(-c3cn[nH]c3)cc2F)CC1` [Compound 2, 1-((1-(2-fluoro-4-(1H-pyrazol-4-yl)phenyl)piperidin-4-yl)methyl)pyrrolidin-2-one], the “20-HETE levels in the liver, kidneys, and brain tissues compared to the solvent control group” value in data set [1] is “varying degrees of decrease”. The “maximum weight loss effect, decrease compared to pre-administration weight” value in data set [2] (30 mg/kg orally once daily, after 6 weeks) is on record as “approximately 36%”. The food intake result in data set [2] (30 mg/kg orally once daily, returned to control level in the 6th week) is recorded as “slightly decreased”. Further, in data set [2] (7 weeks semaglutide, then switched to compound 2 for 7 weeks), the “body weight decrease, of pre-administration weight” value turned out to be 33.6%. The “weight loss effect compared with semaglutide” value in data set [2] (DIO mouse model) was “greater weight loss effect than semaglutide”. In addition, the “20-HETE levels in the liver, kidneys, and brain tissues compared to the solvent control group” value in data set [3] is on record as “varying degrees of decrease”. In data set [4] (setting [8]), the fasting blood glucose entry is reported as “inhibit the increase in fasting blood glucose” and the “glucose metabolism (OGTT)” value was “enhance their glucose metabolism”. In addition, the “food intake compared to the DIO model control group” value in data set [4] (30 mg/kg orally once daily, after 2 weeks) is recorded as “no difference”. Moreover, the “difference in weight gain relative to the DIO model control group” value in data set [4] (30 mg/kg orally once daily, after 8 weeks) is reported as 47.1%. Further, in data set [4] (30 mg/kg orally once daily, after 8 weeks, DIO mice), the “body weight decrease, of pre-administration weight” value was determined as 20.8%. The food intake entry in data set [4] (30 mg/kg orally once daily, first 2 weeks of administration) is listed as “decreased”. Also, the “absorption and blood exposure after oral administration (in words)” value in data set [5] is “well absorbed and exhibit high blood exposure”. For the same molecule, in data set [5] (male, SD, rat, plasma), the AUC(0-inf) is 120 µg·h/mL, the Cmax was determined as 10100 ng/mL, the Tmax was 3.33 h and the half-life was 5.2 h. Also, the AUC(0-t) in data set [5] (male, SD, rat, plasma, read-out: AUC0-24) is 115 µg·h/mL. In addition, in data set [6], the IC50 was 33.2 nM. In data set [7], this molecule returned an IC50 of 103 nM. For the same molecule, in data set [7] (500 nM), the “RLM (% inh @ 500 nM)” value was 59.38%.
